We go through three molecules from US20100056524A1, “Compound” (priority 2008, published 2010).

Structures can show the parent of a compound that is named as a salt. Where two headings read alike, the source gives them in different places.

The target of experiment [1] is T1, S6K1 (Homo sapiens, UniProt P23443, T412E).
T1 construct: All protein kinases were of human origin and encoded full length proteins, unless indicated otherwise; made in house
The experiment in a line: S6K1 protein kinase assay. The format is biochemical. The settings on record: for remaining activity at 10 µM: 10 μM compound; for remaining activity at 1 µM: 1 μM compound. The text has this: (§1) All protein kinases were of human origin and encoded full length proteins, unless indicated otherwise. They were either expressed as glutathione S-transferase (GST) fusion proteins in Escherichia Coli or as hexahistidine (His6)-tagged proteins in insect Sf21 cells. GST fusion proteins were purified by affinity chromatography on glutathione-Sepharose, and His6-tagged proteins on nickel/nitriloacetate-agarose. The procedures for expressing some of the protein kinases used herein have been detailed previously.^8,9 The following sections outline the DNA vectors synthesised and the procedures used to express and purifying protein kinases that have not been reported previously.
(§2) All assays (25.5 μl) were carried out at room temperature (21° C.) and were linear with respect to time and enzyme concentration under the conditions used. Assays were performed for 30 min using Multidrop Micro reagent dispensers (Thermo Electron Corporation, Waltham, Mass. 02454, USA) in a 96-well format. The concentration of magnesium acetate in the assays was 10 mM and the [γ-33P] ATP (800 cpm/pmol) was used at 5, 20 or 50 μM as indicated, in order to be at or below the Km for ATP for each enzyme. Protein kinases assayed at 5 μM ATP were: —ERK1, ERK8, PKBα, MARK3, Aurora C. Protein kinases assayed at 20 μM ATP were: —JNK1, PDK1, CHK1, CHK2, CDK2 and Aurora B. Protein kinases assayed at 50 μM ATP were: —MNK2, IKKepsilon and TBK1.
(§3) The assays were initiated with MgATP, stopped by addition of 5 μl of 0.5 M orthophosphoric acid and spotted on to P81 filterplates using a unifilter harvester (PerkinElmer, Boston, Mass. 02118, USA). The IC50 values of inhibitors were determined after carrying out assays at 10 different concentrations of each compound.
(§4) Unless stated otherwise, enzymes were diluted in 50 mM Tris/HCl pH 7.5, 0.1 mM EGTA, 1 mg/ml BSA, 0.1% (v/v) 2-mercaptoethanol and assayed in 50 mM Tris/HCl pH 7.5, 0.1 mM EGTA, 0.1% (v/v) 2-mercaptoethanol.

Experiment [2] relates to AMPK. The experiment in a line: AMPK protein kinase assay. The note with it: for residual kinase activity: AMPK. The format is biochemical, human.
Description: as §1, §2, §3, §4

The target of experiment [3] is T2, PAK5 (Homo sapiens, UniProt Q9P286).
T2 construct: All protein kinases were of human origin and encoded full length proteins, unless indicated otherwise; made in house
The experiment in a line: PAK5 protein kinase assay. The format is biochemical. The settings on record: for remaining activity at 10 µM: 10 μM compound; for remaining activity at 1 µM: 1 μM compound.
Description: as §1, §2, §3, §4

The subject of experiment [4] is IGF-1R. The experiment in a line: IGF-1R protein kinase assay. The format is biochemical, human. The note with it: for residual kinase activity: IGF-1R.
Description: as §1, §2, §3, §4

Experiment [5] concerns the target T3, MSK1 (Homo sapiens, UniProt O75582).
T3 construct: All protein kinases were of human origin and encoded full length proteins, unless indicated otherwise; made in house
The experiment in a line: MSK1 protein kinase assay. The format is biochemical. The note with it: for remaining activity at 10 µM: 10 μM compound; for remaining activity at 1 µM: 1 μM compound.
Description: as §1, §2, §3, §4

Experiment [6] deals with T4, BTK (Homo sapiens, UniProt Q06187).
T4 construct: All protein kinases were of human origin and encoded full length proteins, unless indicated otherwise; made in house
As to the kind of experiment: BTK protein kinase assay. The format is biochemical. The note with it: for remaining activity at 10 µM: 10 μM compound; for remaining activity at 1 µM: 1 μM compound.
Description: as §1, §2, §3, §4

The target in experiment [7] is T5, MNK2 (Homo sapiens, UniProt Q9HBH9).
T5 construct: All protein kinases were of human origin and encoded full length proteins, unless indicated otherwise; GST; made in house; host or cells: E. coli
The experiment in a line: MNK2 protein kinase assay. The format is biochemical. The settings on record: for remaining activity at 10 µM: 10 μM compound; for remaining activity at 1 µM: 1 μM compound.
Description: as §1
The following proteins were expressed in E. coli: —CHK2[5-543], cyclin-dependent protein kinase 2 (CDK2), MAP kinase-interacting kinase 2 (MNK2), extra-cellular signal-regulated kinase 1 (ERK1).
In order to produce activated forms of Aurora B and Aurora C, insect Sf21 cells were incubated for 1 h with the protein phosphatase inhibitor okadaic acid (50 nM). JNK isoforms were activated with MKK4 and MKK7, MNK2 with p38α MAPkinase; PKBα, PKBβ, with PDK1, and ERK1 with MKK1. To activate CDK2, bacterial pellets expressing cyclin A2 and CDK2 were mixed together, lyse and purified on glutathione Sepharose. The GST-tags were removed by cleavage with PreScission protease and the CDK2-cyclin A2 complex purified by chromatography on SP-Sepharose. It was then activated with CAK1/CDK7 followed by chromatography on nickel-nitrilotriacetate agarose to remove CAK1/CDK7, which binds to this column by virtue of its C-terminal His6 tag. All the other protein kinases were active as expressed.
as §2, §3
(§5) ERK1 and ERK8 were both assayed against myelin basic protein (MBP, 0.33 mg/ml). MARK3 was assayed against the peptide […] (300 μM), MNK2 against the eIF4E protein (0.5 mg/ml). PKBβ was assayed against the peptide […] (30 μM). TBK1 were assayed against ([…]) (300 μM). The substrates used for other protein kinases were described previously.^8,9
as §4

Experiment [8] deals with T6, EF2K (Homo sapiens, UniProt O00418).
T6 construct: All protein kinases were of human origin and encoded full length proteins, unless indicated otherwise; made in house
As to the kind of experiment: EF2K protein kinase assay. The format is biochemical. The settings on record: for remaining activity at 10 µM: 10 μM compound; for remaining activity at 1 µM: 1 μM compound.
Description: as §1, §2, §3, §4

In experiment [9] the target is T7, CSK (Homo sapiens, UniProt P41240).
T7 construct: All protein kinases were of human origin and encoded full length proteins, unless indicated otherwise; made in house
The experiment in a line: CSK protein kinase assay. The note with it: for remaining activity at 10 µM: 10 μM compound; for remaining activity at 1 µM: 1 μM compound. The format is biochemical.
Description: as §1, §2, §3, §4

Experiment [10] has as its target T8, PIM3 (Homo sapiens, UniProt Q86V86).
T8 construct: All protein kinases were of human origin and encoded full length proteins, unless indicated otherwise; made in house
The experiment in a line: PIM3 protein kinase assay. The format is biochemical. The note with it: for remaining activity at 10 µM: 10 μM compound; for remaining activity at 1 µM: 1 μM compound.
Description: as §1, §2, §3, §4

For experiment [11], the target named is T9, PAK4 (Homo sapiens, UniProt O96013).
T9 construct: All protein kinases were of human origin and encoded full length proteins, unless indicated otherwise; made in house
The experiment in a line: PAK4 protein kinase assay. The format is biochemical. The note with it: for remaining activity at 10 µM: 10 μM compound; for remaining activity at 1 µM: 1 μM compound.
Description: as §1, §2, §3, §4

Experiment [12] addresses T10, MARK3 (Homo sapiens, UniProt P27448).
T10 construct: All protein kinases were of human origin and encoded full length proteins, unless indicated otherwise; His6; made in house; host or cells: Sf21 insect cells
The experiment in a line: MARK3 protein kinase assay. The settings on record: for remaining activity at 10 µM: 10 μM compound; for remaining activity at 1 µM: 1 μM compound. The format is biochemical.
Description: as §1
The following kinases were expressed in Sf21 cells: Aurora B and Aurora C, extra-cellular signal-regulated kinase 8 (ERK8), microtubule affinity regulating kinase 3 (MARK3), protein kinase Bα[118-480][S473D], protein kinase Bβ (PKBβ[120-481][S474D], 3-phosphoinositide-dependent protein kinase-1 [52-556]
as §2, §3, §5, §4

Setting [13] is: S6K1, read-out: residual kinase activity.
The mark [14] stands for this setting: PAK5, read-out: residual kinase activity.
The mark [15] stands for this setting: MSK1, read-out: residual kinase activity.
The mark [16] stands for this setting: BTK, read-out: residual kinase activity.
The mark [17] stands for this setting: MNK2, 50 μM ATP, read-out: residual kinase activity.
[18] abbreviates: EF2K, read-out: residual kinase activity.
Where [19] appears, read: CSK, read-out: residual kinase activity.
Setting [20] is: PIM3, read-out: residual kinase activity.
Where [21] appears, read: PAK4, read-out: residual kinase activity.
[22] abbreviates: MARK3, 5 μM ATP, read-out: residual kinase activity.

T9 sequence (O96013 whole entry): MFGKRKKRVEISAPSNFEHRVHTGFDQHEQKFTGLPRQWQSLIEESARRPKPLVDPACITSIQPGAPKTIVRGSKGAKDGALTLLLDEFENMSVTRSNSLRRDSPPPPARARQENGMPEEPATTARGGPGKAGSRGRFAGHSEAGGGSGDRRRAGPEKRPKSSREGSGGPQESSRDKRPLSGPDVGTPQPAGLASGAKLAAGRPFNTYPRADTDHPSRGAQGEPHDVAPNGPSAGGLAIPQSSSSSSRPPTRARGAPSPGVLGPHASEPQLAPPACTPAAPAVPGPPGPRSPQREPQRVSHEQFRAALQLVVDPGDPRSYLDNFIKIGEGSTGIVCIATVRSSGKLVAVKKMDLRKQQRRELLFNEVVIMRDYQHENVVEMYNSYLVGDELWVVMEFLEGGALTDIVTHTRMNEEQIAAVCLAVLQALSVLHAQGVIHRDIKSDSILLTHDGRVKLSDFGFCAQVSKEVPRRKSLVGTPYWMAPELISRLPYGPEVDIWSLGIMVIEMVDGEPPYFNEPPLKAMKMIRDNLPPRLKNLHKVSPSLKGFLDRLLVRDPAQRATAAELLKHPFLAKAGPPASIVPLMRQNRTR
T2 sequence (Q9P286 425-719 limits assumed): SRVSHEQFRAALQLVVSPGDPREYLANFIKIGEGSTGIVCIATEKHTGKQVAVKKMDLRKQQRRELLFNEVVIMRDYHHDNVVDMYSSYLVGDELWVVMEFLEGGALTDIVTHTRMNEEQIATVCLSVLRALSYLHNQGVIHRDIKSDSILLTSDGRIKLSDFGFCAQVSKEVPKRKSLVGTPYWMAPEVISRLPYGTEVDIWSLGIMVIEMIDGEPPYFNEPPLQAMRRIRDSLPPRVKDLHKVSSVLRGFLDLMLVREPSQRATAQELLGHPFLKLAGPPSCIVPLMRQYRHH
T4 sequence (Q06187 whole entry): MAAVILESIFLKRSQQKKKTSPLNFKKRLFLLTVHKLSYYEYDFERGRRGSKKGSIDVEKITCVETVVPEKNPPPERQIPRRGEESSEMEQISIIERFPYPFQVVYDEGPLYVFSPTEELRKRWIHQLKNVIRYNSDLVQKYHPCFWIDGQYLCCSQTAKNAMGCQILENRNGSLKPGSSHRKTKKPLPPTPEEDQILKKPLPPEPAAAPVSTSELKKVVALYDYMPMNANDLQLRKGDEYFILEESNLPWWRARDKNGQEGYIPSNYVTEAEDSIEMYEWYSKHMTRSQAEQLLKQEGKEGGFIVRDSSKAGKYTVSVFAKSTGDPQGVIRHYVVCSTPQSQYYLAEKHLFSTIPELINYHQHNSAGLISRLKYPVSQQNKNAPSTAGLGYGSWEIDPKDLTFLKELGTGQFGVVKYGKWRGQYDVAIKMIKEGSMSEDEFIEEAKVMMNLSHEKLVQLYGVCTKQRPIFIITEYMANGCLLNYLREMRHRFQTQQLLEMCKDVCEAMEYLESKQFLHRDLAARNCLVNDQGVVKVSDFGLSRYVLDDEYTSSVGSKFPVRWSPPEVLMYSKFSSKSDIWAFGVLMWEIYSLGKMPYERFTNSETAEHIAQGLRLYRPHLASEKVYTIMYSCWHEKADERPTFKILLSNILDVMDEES
T3 sequence (O75582 whole entry): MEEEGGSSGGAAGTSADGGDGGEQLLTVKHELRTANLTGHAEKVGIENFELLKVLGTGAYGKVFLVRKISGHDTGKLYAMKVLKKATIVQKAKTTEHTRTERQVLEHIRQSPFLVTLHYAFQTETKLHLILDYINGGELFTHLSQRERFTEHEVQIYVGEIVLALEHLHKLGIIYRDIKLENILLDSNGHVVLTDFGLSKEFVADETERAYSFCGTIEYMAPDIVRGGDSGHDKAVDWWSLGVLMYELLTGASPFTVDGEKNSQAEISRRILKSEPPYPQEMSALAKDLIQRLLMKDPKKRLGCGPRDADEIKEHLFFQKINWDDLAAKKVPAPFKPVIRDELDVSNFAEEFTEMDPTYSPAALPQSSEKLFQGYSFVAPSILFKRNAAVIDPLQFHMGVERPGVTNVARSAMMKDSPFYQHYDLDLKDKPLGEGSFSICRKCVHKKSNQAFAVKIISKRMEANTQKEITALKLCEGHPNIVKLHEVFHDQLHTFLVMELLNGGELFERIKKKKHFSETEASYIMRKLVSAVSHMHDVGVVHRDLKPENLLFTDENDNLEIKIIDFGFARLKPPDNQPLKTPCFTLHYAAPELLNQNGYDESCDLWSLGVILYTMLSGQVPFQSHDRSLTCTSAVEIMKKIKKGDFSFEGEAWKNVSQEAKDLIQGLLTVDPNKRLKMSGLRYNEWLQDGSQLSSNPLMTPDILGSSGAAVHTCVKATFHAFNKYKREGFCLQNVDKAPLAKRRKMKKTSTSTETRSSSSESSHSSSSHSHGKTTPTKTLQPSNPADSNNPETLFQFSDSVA
T10 sequence (P27448 whole entry): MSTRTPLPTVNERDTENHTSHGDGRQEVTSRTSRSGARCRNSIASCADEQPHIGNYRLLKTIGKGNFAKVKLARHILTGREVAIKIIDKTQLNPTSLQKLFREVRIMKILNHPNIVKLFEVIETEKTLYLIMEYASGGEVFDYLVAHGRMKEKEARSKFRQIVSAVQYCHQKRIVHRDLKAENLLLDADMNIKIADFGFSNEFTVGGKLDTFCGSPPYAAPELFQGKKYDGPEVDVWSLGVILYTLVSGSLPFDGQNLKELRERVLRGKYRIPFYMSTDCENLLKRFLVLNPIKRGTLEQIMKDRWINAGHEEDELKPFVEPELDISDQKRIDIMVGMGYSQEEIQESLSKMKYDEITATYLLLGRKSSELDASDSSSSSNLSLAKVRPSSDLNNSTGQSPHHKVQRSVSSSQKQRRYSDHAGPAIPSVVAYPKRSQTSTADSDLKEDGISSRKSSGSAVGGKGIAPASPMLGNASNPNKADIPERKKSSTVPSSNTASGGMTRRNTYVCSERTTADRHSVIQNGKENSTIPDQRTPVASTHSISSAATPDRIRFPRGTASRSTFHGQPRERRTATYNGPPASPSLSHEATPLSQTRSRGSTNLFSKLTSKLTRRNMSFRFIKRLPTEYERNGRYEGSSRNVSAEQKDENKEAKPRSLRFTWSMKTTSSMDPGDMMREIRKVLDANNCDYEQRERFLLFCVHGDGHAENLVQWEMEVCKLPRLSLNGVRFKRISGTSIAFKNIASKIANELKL
T5 sequence (Q9HBH9 whole entry): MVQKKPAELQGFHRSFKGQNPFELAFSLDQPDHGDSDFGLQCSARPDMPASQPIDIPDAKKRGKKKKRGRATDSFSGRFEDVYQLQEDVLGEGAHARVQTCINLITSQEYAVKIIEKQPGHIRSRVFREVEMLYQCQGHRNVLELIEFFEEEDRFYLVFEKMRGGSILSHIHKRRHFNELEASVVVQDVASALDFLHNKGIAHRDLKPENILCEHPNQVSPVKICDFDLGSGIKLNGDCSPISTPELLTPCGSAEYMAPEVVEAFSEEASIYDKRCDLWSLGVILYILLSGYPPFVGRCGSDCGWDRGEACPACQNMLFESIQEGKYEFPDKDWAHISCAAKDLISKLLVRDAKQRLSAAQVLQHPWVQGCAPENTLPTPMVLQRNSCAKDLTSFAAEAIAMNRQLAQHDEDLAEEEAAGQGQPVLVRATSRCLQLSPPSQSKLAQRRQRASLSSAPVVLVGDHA
T7 sequence (P41240 whole entry): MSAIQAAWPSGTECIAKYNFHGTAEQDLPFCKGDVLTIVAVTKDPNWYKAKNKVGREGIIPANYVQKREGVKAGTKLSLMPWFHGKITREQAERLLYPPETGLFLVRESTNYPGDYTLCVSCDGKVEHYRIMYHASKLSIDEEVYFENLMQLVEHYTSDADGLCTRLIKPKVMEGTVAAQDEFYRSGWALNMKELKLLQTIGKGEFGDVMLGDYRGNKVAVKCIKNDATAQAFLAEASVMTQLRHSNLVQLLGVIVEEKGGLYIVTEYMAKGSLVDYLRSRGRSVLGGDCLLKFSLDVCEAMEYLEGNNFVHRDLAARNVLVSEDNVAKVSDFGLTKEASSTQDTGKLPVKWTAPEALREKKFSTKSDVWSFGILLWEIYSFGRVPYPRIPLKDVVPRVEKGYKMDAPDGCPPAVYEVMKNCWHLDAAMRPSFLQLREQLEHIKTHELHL
T1 sequence (P23443 1-421 T412E limits assumed): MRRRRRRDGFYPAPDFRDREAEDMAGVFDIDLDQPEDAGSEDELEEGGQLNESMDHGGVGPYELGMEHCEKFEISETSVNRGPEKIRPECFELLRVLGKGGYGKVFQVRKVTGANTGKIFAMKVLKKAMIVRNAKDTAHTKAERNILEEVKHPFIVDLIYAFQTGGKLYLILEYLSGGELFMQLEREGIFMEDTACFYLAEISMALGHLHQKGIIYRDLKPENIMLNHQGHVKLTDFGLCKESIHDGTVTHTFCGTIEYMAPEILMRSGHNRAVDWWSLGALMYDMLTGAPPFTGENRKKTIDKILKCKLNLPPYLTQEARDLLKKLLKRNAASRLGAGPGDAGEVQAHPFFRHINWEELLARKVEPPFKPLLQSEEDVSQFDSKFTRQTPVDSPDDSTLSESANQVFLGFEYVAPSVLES

In the case of `O=C(NCCCNc1nc(Nc2cccc(F)c2)ncc1Br)C1CCC1` [Compound A, cyclobutanecarboxylic acid {3-[5-bromo-2-(3-fluoro-phenylamino)-pyrimidin-4-ylamino]-propyl}-amide, reference compound], the remaining activity at 10 µM in experiment [1] (read-out: residual kinase activity S6K1) is 13%; in experiment [3] (read-out: residual kinase activity PAK5), 14%; in [5] (read-out: residual kinase activity MSK1), 24%; in experiment [6] (read-out: residual kinase activity BTK), 33%; in [7] (read-out: residual kinase activity MNK2), 7%; in experiment [8] (read-out: residual kinase activity EF2K), 88%. For the same molecule, the remaining activity at 10 µM was found to be 51% in experiment [9] (read-out: residual kinase activity CSK), 21% in [10] (read-out: residual kinase activity PIM3), 6% in experiment [11] (read-out: residual kinase activity PAK4) and 2% in experiment [12] (read-out: residual kinase activity MARK3). The “residual kinase activity S6K1” value in experiment [1] (1 μm compound) came out at 49%. Moreover, the “residual kinase activity AMPK” value in experiment [2] (10 μM compound) is 2%; in experiment [2] (1 μm compound) it was 4%. The “residual kinase activity PAK5” value in [3] (1 μm compound) is 46%. Further, the “residual kinase activity IGF-1R” value in [4] (10 μM compound) was 21%; in [4] (1 μm compound), 78%. Also, in [5] (1 μm compound), the “residual kinase activity MSK1” value came out at 62%. Moreover, the “residual kinase activity BTK” value in experiment [6] (1 μm compound) amounted to 94%. Besides, in [7] (1 μm compound), the “residual kinase activity MNK2” value is given as 6%. Besides, in experiment [8] (1 μm compound), the “residual kinase activity EF2K” value was 96%. In addition, in experiment [9] (1 μm compound), the “residual kinase activity CSK” value came out at 86%. In addition, in experiment [10] (1 μm compound), the “residual kinase activity PIM3” value stood at 78%. In experiment [11] (1 μm compound), the “residual kinase activity PAK4” value turned out to be 32%. Moreover, the “residual kinase activity MARK3” value in experiment [12] (1 μm compound) was 3%.

With `O=C(NCCCNc1nc(Nc2cccc(N3CCCC3=O)c2)ncc1C1CC1)c1cccs1` [Example 47, Thiophene-2-carboxylic acid (3-{5-cyclopropyl-2-[3-(2-oxo-pyrrolidin-1-yl)-phenylamino]-pyrimidin-4-ylamino}-propyl)-amide. Hydrochloride salt], the remaining activity at 1 µM was 63% in [1] (setting [13]); 69% in experiment [3] (setting [14]); 61% in experiment [5] (setting [15]); 93% in experiment [6] (setting [16]); 36% in experiment [7] (setting [17]); 105% in experiment [8] (setting [18]). The remaining activity at 1 µM in [9] (setting [19]) worked out at 77%; in [10] (setting [20]), 99%; in experiment [11] (setting [21]) it was 80%; in experiment [12] (setting [22]), 15%. For the same molecule, the remaining activity at 10 µM in experiment [1] (setting [13]) amounted to 30%; in experiment [3] (setting [14]), 68%; in [5] (setting [15]), 54%; in experiment [6] (setting [16]), 61%; in experiment [7] (setting [17]), 16%; in experiment [8] (setting [18]), 104%. The remaining activity at 10 µM in experiment [9] (setting [19]) is 71%; in [10] (setting [20]) it was 78%; in experiment [11] (setting [21]), 57%; in experiment [12] (setting [22]), 4%. Also, the residual kinase activity is 77% in experiment [2] (1 μM compound), 30% in experiment [2] (10 μM compound), 39% in experiment [4] (1 μM compound) and 35% in experiment [4] (10 μM compound).

On to `O=C(NCCCNc1nc(Nc2cccnc2)ncc1C1CC1)c1cccs1` [Example 50, Thiophene-2-carboxylic acid {3-[5-cyclopropyl-2-(pyridin-3-ylamino)-pyrimidin-4-ylamino]-propyl}-amide], for which the remaining activity at 1 µM in experiment [1] (setting [13]) came out at 63%; in [3] (setting [14]), 73%; in experiment [5] (setting [15]), 77%; in experiment [6] (setting [16]), 93%; in [7] (setting [17]), 56%; in [8] (setting [18]), 108%. Besides, the remaining activity at 1 µM amounted to 79% in experiment [9] (setting [19]), 102% in [10] (setting [20]), 75% in [11] (setting [21]) and 13% in experiment [12] (setting [22]). Moreover, the remaining activity at 10 µM in [1] (setting [13]) is 30%; in [3] (setting [14]), 47%; in [5] (setting [15]) it was 70%; in experiment [6] (setting [16]), 66%; in [7] (setting [17]), 21%; in [8] (setting [18]) it was 101%. For the same molecule, the remaining activity at 10 µM in experiment [9] (setting [19]) worked out at 60%; in [10] (setting [20]), 50%; in [11] (setting [21]) it was 35%; in experiment [12] (setting [22]), 2%. Also, the residual kinase activity in experiment [2] (1 μM compound) was found to be 76%; in experiment [2] (10 μM compound), 38%; in experiment [4] (1 μM compound), 47%; in experiment [4] (10 μM compound) it was 32%.
